Assay results published in ChEMBL document CHEMBL1914428, “Investigating the role of the hydroxyl groups of substrate erythrose 4-phosphate in the reaction catalysed by the first enzyme of the shikimate pathway” (Bioorg Med Chem Lett, 2011).
Calls of active or inactive are those of the source. The rule behind the calls is not given here.

Experiments:
[1] = tested on: Mycobacterium tuberculosis; experiment: Activity of Mycobacterium tuberculosis DAH7P synthase type 2 by spectrophotometry in the presence of Mn2+
Pyrococcus furiosus [2] = experiment: Activity of Pyrococccus furiosus DAH7P synthase type 1beta by spectrophotometry in the presence of Mn2+
Escherichia coli [3] = experiment: Activity of Escherichia coli phenylalanine-sensitive DAH7P synthase type 1alpha by spectrophotometry in the presence of Mn2+
[4] = tested on: Mycobacterium tuberculosis; experiment: Ratio of Kcat to Km of Mycobacterium tuberculosis DAH7P synthase type 2
Escherichia coli [5] = experiment: Ratio of Kcat to Km of Escherichia coli phenylalanine-sensitive DAH7P synthase type 1alpha
Pyrococcus furiosus [6] = experiment: Ratio of Kcat to Km of Pyrococccus furiosus DAH7P synthase type 1beta
Pyrococcus furiosus [7] = experiment: Inhibition of Pyrococccus furiosus DAH7P synthase type 1beta

Row | Compound | Km [1] | kcat [1] | Km (Pyrococcus furiosus [2]) | kcat (Pyrococcus furiosus [2]) | Km (Escherichia coli [3]) | kcat (Escherichia coli [3]) | kcat/Km [4] | kcat/Km (Escherichia coli [5]) | kcat/Km (Pyrococcus furiosus [6]) | inhibition (Pyrococcus furiosus [7])
1 | O=C[C@H](O)CCOP(=O)(O)O | 77 µM | 2.4 s⁻¹ | 200 µM | 2.1 s⁻¹ | 2700 µM | 4.5 s⁻¹ | 31000 M⁻¹ s⁻¹ | 2000 M⁻¹ s⁻¹ | 11000 M⁻¹ s⁻¹ | 
2 | O=CC(O)CCOP(=O)(O)O (racemic) |  |  |  |  | 2600 µM |  |  |  |  | Active
3 | O=CC[C@H](O)COP(=O)(O)O | 46 µM | 4.9 s⁻¹ | 6 µM | 3 s⁻¹ | 410 µM | 25 s⁻¹ | 110000 M⁻¹ s⁻¹ | 60000 M⁻¹ s⁻¹ | 500000 M⁻¹ s⁻¹ | 
4 | O=C[C@H](O)[C@H](O)COP(=O)(O)O | 37 µM | 5.4 s⁻¹ | 9 µM | 1.4 s⁻¹ | 39 µM | 26 s⁻¹ | 150000 M⁻¹ s⁻¹ | 670000 M⁻¹ s⁻¹ | 160000 M⁻¹ s⁻¹ | 
